Laboratory results reported in patent US8404665B2, “In vivo use of glutathione S-transferase activated nitric oxide donors” (University of Utah Research Foundation, priority 2002, dated 2013).
Read-outs that look alike come from different tables or passages of the source.

How the values were obtained:
[1] = system: U937 cells; experiment: U937 leukemia cell growth; format: cell-based, human
Experimental: Cell Lines and Culture Conditions. HL-60, DLD1, and U937 cells were obtained from ATCC (Rockville, Md.). Meth A cells were from Dr. Wolfram Samlowski (University of Utah, Salt Lake City, Utah). The PPC-1 cell line was provided by Dr. Graeme Bolger (University of Alabama, Birmingham, Ala.). For the cell growth and apoptosis experiments, cells were cultured at a density of 150,000 cells/ml in RPMI-1640 with 10% fetal bovine serum at 37° C. in a 5% CO2 humidified atmosphere. Agents were added at the indicated concentrations 24 h after culture initiation. […]
Cell Growth, Differentiation and Apoptosis Assays. The number of viable cells was determined using the MTT assay according to the manufacturer's protocol (Promega, Madison, Wis.) or using a Coulter counter. […] The assay is useful in calorimetric quantitation of cell viability and proliferation. In contrast, cell differentiation was evaluated using Wright and Non-Specific Esterase (NSE) staining of cells collected on microscope slides by cytospin as previously described (Magrinat, G. et al. (1992) Blood 80: 1880-1884). […]
The antiproliferative effects in the human AML (Acute Myeloid Leukemia) cell lines, HL-60 (myeloid leukemia) and U937 (monoblastic leukemia) cells were treated with JS-K for a period of 3 days, upon which cell growth was evaluated using a Coulter counter (CITY, STATE). […]

[2] = system: HL-60 cells; experiment: Apoptosis in HL-60 cells by DNA laddering; format: cell-based, human; conditions: 1 μM, twenty-four hours post-addition
Experimental: Cell Growth, Differentiation and Apoptosis Assays. The number of viable cells was determined using the MTT assay according to the manufacturer's protocol (Promega, Madison, Wis.) or using a Coulter counter. Briefly, a MTT assay is an analytical technique that uses the dye dimethylthiazolyl-diphenyltetrazolium (MTT) which turns from yellow to brownish-purple as it is reduced in the mitochondria of living cells. The assay is useful in calorimetric quantitation of cell viability and proliferation. In contrast, cell differentiation was evaluated using Wright and Non-Specific Esterase (NSE) staining of cells collected on microscope slides by cytospin as previously described (Magrinat, G. et al. (1992) Blood 80: 1880-1884). Apoptosis was assayed by flow cytometry and by determining DNA fragmentation using agarose gel electrophoresis as previously described (Shami, P. J. et al. (1998) Leukemia 12: 1461-1466). For the flow cytometry assay, we used the propidium iodide staining method of Nicoletti et al. (Nicoletti, I. et al. (1991) J. Immunol. Methods 139: 271-279).
Twenty-four hours post-addition, apoptosis induction was assayed by DNA laddering.

[3] = system: HL-60 cells; experiment: Systemic leukemia model: NOD/SCID mice injected intravenously with HL-60 cells; format: in vivo
Experimental: A second experiment was conducted with NOD/SCID mice injected intravenously with HL-60 cells. Control mice appeared to develop systemic disease as evidenced by large abdominal lymph nodes and leukemia cell engraftment in the liver, spleen and bone marrow. Treated mice were administered 1 μmol/kg intravenous JS-K for three to four weeks beginning one day after inoculation. Control mice were treated with vehicle. A human-specific anti-CD15 antibody was utilized in flow cytometric analysis to identify the leukemic cells. […] Additionally, the number and size of enlarged abdominal lymph nodes appeared to be smaller in these animals.

[4] = mouse, in vivo, iv
[5] = 1 μmol/kg intravenous for three to four weeks, versus controls

CCOC(=O)N1CCN(/[N+]([O-])=N/Oc2ccc([N+](=O)[O-])cc2[N+](=O)[O-])CC1 [JS-K, O^2-(2,4-dinitrophenyl) 1-[(4-ethoxycarbonyl)piperazin-1-yl]diazen-1-ium-1,2-diolate]
IC50 ([1]; U937 (monocytic leukemia) cells, read-out: IC50, growth): 300 nM
IC50 ([1]; U937, 3 days, Coulter counter, read-out: IC50, cell growth): 330 nM
apoptosis induction by DNA laddering [2]: potent inducer of apoptosis in leukemia cells
colonies from cultured bone marrow in human hematopoietic cell-selective semi-solid medium ([3]; 1 μmol/kg intravenous): few if any colonies of cancerous cells
leukemic cell engraftment (anti-CD15 flow cytometry) [3, 5]: decreased leukemic cell engraftment in the bone marrow and liver
number and size of enlarged abdominal lymph nodes [3, 5]: smaller
treated mice with almost no evidence of disease ([3]; three to four weeks after inoculation): Two of the five
peak blood concentration the dose would achieve [4]: approximately 68 μM
